Laboratory results taken from patent US7135303B2, “Regulators of type-1 tumor necrosis factor receptor and other cytokine receptor shedding” (The United States of America as represented by the …, priority 2000, dated 2006).
“Also recorded” adds a separate entry of the source.

Tests used:
Format in all cases: cell-based, human
[1] = test system: ARTS-1 protein in NCI-H292 cells; assay: Drug screening: ARTS-1 protein expression by Western immunoblot of membrane protein fractions; settings: 0.1 μM PMA, 0 to 24 hours, membrane protein fraction
Protocol: In another embodiment of the screening method of the present invention, Western immunoblotting is used to assess the levels of ARTS-1 protein following exposure of a cell culture to a test compound. In this embodiment, cultured cells were exposed to a test compound, in this case, 4b-phorbol 12-myristate 13-acetate (PMA), and samples of tissue were collected at 0, 2, 8 and 24 hours following the exposure. Membrane proteins were isolated from these cells and subjected to Western immunoblot analysis, as described in Examples 4 and 5, using antiserum specific for the ARTS-1 protein. […] It is contemplated that compounds that can upregulate ARTS-1 protein levels are therapeutically advantageous, as such compounds can suppress a proinflammatory immune response by enhancing receptor ectodomain shedding. However, an understanding of the mechanism(s) is not required in order to use the present invention. […]
In the first method, cultured human NCI-H292 pulmonary mucoepidermoid carcinoma cells were exposed to a test compound, in this case, 4b-phorbol 12-myristate 13-acetate (PMA) at a concentration of 0.1 μM. […] The protein samples were analyzed in a Western immunoblot using the anti-ARTS-1 antiserum at the primary detection antibody, as described in Examples 4 and 5. The protein fractions were analyzed in duplicate, and the relative densitometry units for each lane are shown beneath the columns. […]

[2] = test system: TNFR1 ectodomain shedding in NCI-H292 cells; assay: TNFR1 ectodomain shedding assay (sTNFR1 sandwich ELISA of cell culture supernatants); settings: for sTNFR1 in cell culture supernatant following PMA treatment: 24 hours
Protocol: The amount of TNFR1 ectodomain shedding occurring in each of these cell lines is depicted in FIG. 8. The levels of sTNFR1 ectodomain in cell culture supernatants from these cell lines were assayed using a commercially available sandwich-enzyme-linked immunosorbent assay (ELISA) technique (R & D Systems) with a lower limit of detection of 7.8 pg/ml.
Following the introduction and selection of these constructs in the host cell lines, the amount of TNFR1 ectodomain shedding occurring in each of the lines was determined by measuring the levels of sTNFR1 ectodomain in cell culture supernatants using a commercially available sandwich-enzyme-linked immunosorbent assay (ELISA) technique (R & D Systems) with a lower limit of detection of 7.8 pg/ml.
The amount of TNFR1 ectodomain shedding occurring in each of the stably transfected cell lines described in Example 9 was assessed. The levels of sTNFR1 ectodomain in cell culture supernatants from these cell lines were assayed by a commercially available sandwich-enzyme-linked immunosorbent assay (ELISA) technique (R & D Systems) with a lower limit of detection of 7.8 pg/ml. The protocol used was according to the manufacturer's instructions. The results of this assay are depicted in FIG. 8 as the mean of 5 independent experiments, with accompanying SEM (standard error of the mean) indicated above the bar.
A similar experiment analyzing the ability of ARTS-1 overexpression to potentiate the cleavage and shedding of TNFR ectodomain from the surface of NCI-H292 cells in response to PMA stimulation using these same cell lines is shown in FIG. 9.
This assay was further used to measure the sTNFR1 ectodomain shedding activity of ARTS-1 peptidase/protease catalytic mutants. The construction of these mutations (and resulting mutant cell lines) are described in Example 10. The ability of theses mutants to regulate sTNFR1 shedding was ascertained by measuring the concentration of sTNFR1 in the cell culture supernatant as described above in this Example.
Results from a second screening method are illustrated in FIG. 14, Panel B. In this screening method, cultured human NCI-H292 pulmonary mucoepidermoid carcinoma cells were again exposed to a test compound, PMA, at a concentration of 0.1 μM. Culture medium supernatant was collected from the cultures at intervals between 0 and 24 hours post treatment. The samples were analyzed by the TNFR1 ectodomain shedding assay using an ELISA as described in Example 11. In this assay, anti-sTNFR1 antibody was used to quantitate the concentrations of sTNFR1 in the cell culture supernatants. […] Thus, this screening method also identified a compound that is a candidate for further drug development.

[3] = test system: membrane-associated TNFR1 in NCI-H292 cells; assay: Membrane-associated TNFR1 by Western immunoblot of crude membrane fractions of stably transfected cells
Protocol: The degree of TNFR1 ectodomain shedding as a function of ARTS-1 protein expression was also assessed indirectly by determining the relative amounts of membrane-bound TNFR1 fragment in each of the stably transfected cell lines described above using the Western immunoblotting technique described in Example 5. Crude membrane fractions from the stably transfected NCI-H292 cells described in Example 9 were prepared and resolved by SDS-PAGE and analyzed by Western immunoblotting using a murine anti-human TNFR1 monoclonal primary antibody (R & D System) which detects the membrane fragment of the TNF receptor.
The degree of TNFR1 ectodomain shedding as a function of ARTS-1 protein expression was also indirectly assessed by determining the relative amounts of membrane-bound TNFR1 fragment in each of the stably transfected cell lines described in Example 9 using Western immunoblotting.
Crude membrane fractions from the stably transfected NCI-H292 cells described in Example 9 were prepared and protein concentrations were quantitated, as described above. Samples from these membrane-derived protein preparations were resolved by SDS-PAGE and analyzed by Western immunoblotting as described above in Example 5 using a murine anti-human TNFR1 monoclonal primary antibody which detected the membrane fragment of the receptor (R & D System). […]

Molecule | ARTS-1 protein expression [1] | sTNFR1 in cell culture supernatant following PMA treatment ([2]; 0.1 μM PMA, NCI-H292 cell line containing only the empty pTarget vector) | sTNFR1 in cell culture supernatant following PMA treatment ([2]; 0.1 μM PMA, NCI-H292 cell line overexpressing the ARTS-1 cDNA) | sTNFR1 shedding compared to a control culture ([2]; NCI-H292 cells, 0.1 μM PMA, over the course of 24 hours, n=5, P<0.05) | increase in sTNFR1 shedding ([2]; overexpression of ARTS-1 protein in stably transfected NCI-H292 cells vs Mock or WT controls) | level of sTNFR1 in cell culture supernatant compared to control cell lines (WT, Mock) ([2]; stably transfected NCI-H292 cell lines, mean of 5 independent experiments) | membrane-associated TNFR1 relative to WT or Mock cell lines [3]
CCCCCCCCCCCCCC(=O)O[C@@H]1[C@@H](C)[C@@]2(O)[C@@H](C=C(CO)C[C@]3(O)C(=O)C(C)=C[C@@H]23)[C@@H]2C(C)(C)[C@]12OC(C)=O [PMA, 4b-phorbol 12-myristate 13-acetate] | upregulation of ARTS-1 protein expression; also recorded: increase in ARTS-1 protein expression | 415.3 ± 4.5 pg/mL | 914.2 ± 9.5 pg/mL | increase in sTNFR1 shedding | – | – | –
ARTS-1: aminopeptidase regulator of type I, 55 kDa tumor necrosis factor receptor ectodomain shedding; 941 amino acids, SEQ ID NO:2; overexpressed from pTarget (protein, listed as Homo sapiens, aminopeptidase regulator of type I, 55 kDa tumor necrosis factor receptor ectodomain shedding; overexpressed from pTarget) MVFLPLKWSLATMSFLLSSLLALLTVSTPSWCQSTEASPKRSDGTPFPWNKIRLPEYVIPVHYDLLIHANLTTLTFWGTTKVEITASQPTSTIILHSHHLQISRATLRKGAGERLSEEPLQVLEHPRQEQIALLAPEPLLVGLPYTVVIHYAGNLSETFHGFYKSTYRTKEGELRILASTQFEPTAARMAFPCFDEPAFKASFSIKIRREPRHLAISNMPLVKSVTVAEGLIEDHFDVTVKMSTYLVAFIISDFESVSKITKSGVKVSVYAVPDKINQADYALDAAVTLLEFYEDYFSIPYPLPKQDLAAIPDFQSGAMENWGLTTYRESALLFDAEKSSASSKLGITMTVAHELAHQWFGNLVTMEWWNDLWLNEGFAKFMEFVSVSVTHPELKVGDYFFGKCFDAMEVDALNSSHPVSTPVENPAQIREMFDDVSYDKGACILNMLREYLSADAFKSGIVQYLQKHSYKNTKNEDLWDSMASICPTDGVKGMDGFCSRSQHSSSSSHWHQEGVDVKTMMNTWTLQKGFPLITITVRGRNVHMKQEHYMKGSDGAPDTGYLWHVPLTFITSKSDMVHRFLLKTKTDVLILPEEVEWIKFNVGMNGYYIVHYEDDGWDSLTGLLKGTHTAVSSNDRASLINNAFQLVSIGKLSIEKALDLSLYLKHETEIMPVFQGLNELIPMYKLMEKRDMNEVETQFKAFLIRLLRDLIDKQTWTDEGSVSERMLRSQLLLLACVHNYQPCVQRAEGYFRKWKESNGNLSLPVDVTLAVFAVGAQSTEGWDFLYSKYQFSLSSTEKSQIEFALCRTQNKEKLQWLLDESFKGDKIKTQEFPQILTLIGRNPVGYPLAWQFLRKNWNKLVQKFELGSSSIAHMVMGTTNQFSTRTRLEEVKGFFSSLKENGSQLRCVQQTIETIEENIGWMDKNFDKIRVWLQSEKLERM | – | – | – | – | approximately 200% | significant increase; also recorded: significantly elevated level of sTNFR1 | decrease
